Experimental data taken from US20260167673A1, “NOVEL POLYPEPTIDE, POLYPEPTIDE DERIVATIVE AND USE THEREOF” (NANJING ANJI BIOTECHNOLOGY CO., LTD., priority 2023, published 2026).
Marks after values point to notes of the source that are not given here. Where no end group is shown, it is not given here.

Experiments:
[1] = system: human esophageal cancer cells Eca-109; assay: CCK8 proliferation inhibition, Eca-109; type: cell-based; details: Eca-109, 50 μM, 48 h
Protocol: (§1) Incubation was continued for 4 h in a cell incubator, an absorbance was measured at 450 nm, and a proliferation inhibition was calculated. Data was presented as mean±SD, and GraphPad Prism 5.0 statistical software was used. A t-test was used for comparison between two groups, while One-way Anova (Dunnett) was used for comparison among a plurality of groups.

[2] = system: human histiocytic lymphoma cells U937; assay: CCK8 proliferation inhibition, U937; type: cell-based; details: U937, 50 μM, 48 h
Protocol: as §1

[3] = system: human acute promyelocytic leukemia cells NB4; assay: CCK8 proliferation inhibition, NB4; type: cell-based; details: NB4, 50 μM, 48 h
Protocol: as §1

[4] = system: human melanoma A375 cells; assay: Transwell metastasis inhibition, A375; type: cell-based; details: 48 h
Protocol: Melanoma, cervical cancer, ovarian cancer, liver cancer, and lung cancer cells were seeded into transwell chambers, with 100 μL per well. Different doses of the HMMW micropeptide and the novel polypeptide HMMW15-51 were added to each chamber as a treatment group, while no drug was added to a blank group. Then, 0.6 mL of a complete culture medium containing 10% FBS was added to the lower chambers of the transwell to stimulate cell metastasis, and the cells were cultured at 5% CO2 and 37° C. for 48 h. The culture solution was discarded from the wells. The cells were fixed with methanol at room temperature for 30 min, stained with 0.1% crystal violet at room temperature for 10 min, and rinsed with clean water. The upper layer nonmetastatic cells were wiped off with a cotton swab. The cells were observed under a microscope, and four fields of view were selected to take photos and count the cells. A metastasis inhibition (MI) was calculated according to a formula: […]
where Ntest represents the number of cell metastases in the treatment group, and Ncontrol represents the number of cell metastases in the blank control group.
Data was presented as mean±SD, and GraphPad Prism 5.0 statistical software was used.

[5] = system: human malignant melanoma cells SK-mel-2; assay: CCK8 proliferation inhibition, SK-mel-2; type: cell-based; details: SK-mel-2, 50 μM, 48 h
Protocol: as §1

[6] = system: human lung adenocarcinoma cells SPC-A1; assay: CCK8 proliferation inhibition, SPC-A1; type: cell-based; details: SPC-A1, 50 μM, 48 h
Protocol: as §1

[7] = system: human lymphoma cells Raji; assay: CCK8 proliferation inhibition, Raji; type: cell-based; details: 50 μM, 48 h
Protocol: as §1

[8] = system: human oral epidermoid carcinoma cells KB; assay: CCK8 proliferation inhibition, KB; type: cell-based; details: 50 μM, 48 h
Protocol: as §1

[9] = system: human chronic myeloid leukemia cells K562; assay: CCK8 proliferation inhibition, K562; type: cell-based; details: K562, 50 μM, 48 h
Protocol: as §1

[10] = system: human uterine epidermal cancer cells MS751; assay: CCK8 proliferation inhibition, MS751; type: cell-based; details: MS751, 50 μM, 48 h
Protocol: as §1

[11] = system: human bladder cancer cells EJ; assay: CCK8 proliferation inhibition, EJ; type: cell-based; details: 50 μM, 48 h
Protocol: as §1

[12] = system: subcutaneous transplanted tumor model of tongue squamous cell carcinoma cells CAL27; assay: CAL27 subcutaneous transplanted tumor model (Example 7); type: in vivo, BALB/c nude mice; details: 2.7 μM/kg, FIG. 10
Protocol: (1) A large number of human tongue squamous cell carcinoma CAL27 cells were cultured and digested with a 0.25% trypsin solution. After digestion was terminated, a cell suspension was centrifuged at 1000 rpm for 5 min, and the cells were resuspended in a serum-free DMEM culture medium and counted. The cell concentration was adjusted to 5×10^7 cells/mL.
(2) BALB/c nude mice (4-6 week old, female, weighing 14-16 g, adaptively fed in an SPF animal feeding room for 1 week) were inoculated with 100 μL of cell suspensions of corresponding groups under the left axilla, with an injection volume of 5×10^6 cells/mouse;
(3) After inoculation, the tumor growth at the inoculation sites of the nude mice was closely observed. On the 7th day after inoculation, white nodules appeared at the inoculation sites and could move subcutaneously upon touch. As the tumor tissues grew, hard tumor blocks gradually formed at the inoculation sites, and the average volume of the tumor tissues reached 80 mm^3 in about 14 days. The BALB/c nude mice were randomly divided into 3 groups (a normal saline group served as a blank control, and the dose of the micropeptide HMMW and the novel polypeptide HMMW15-51 was 2.7 μM/kg), with 10 mice in the blank group and 6 mice in each other group. […]
(4) The volume of the transplanted tumor was measured and recorded every three days. […]

[13] = system: human colon cancer cells SW480; assay: CCK8 proliferation inhibition, SW480; type: cell-based; details: SW480, 50 μM, 48 h
Protocol: as §1

[14] = system: human multiple myeloma cells LP-1; assay: CCK8 proliferation inhibition, LP-1; type: cell-based; details: LP-1, 50 μM, 48 h
Protocol: as §1

[15] = system: human brain astrocytoma cells U87MG; assay: CCK8 proliferation inhibition, U87MG; type: cell-based; details: 50 μM, 48 h
Protocol: as §1

MERAGVPGFSPRRSSVEAKMQSTSCSVRKSSTVTAWPAVVLLLSWGQRRGG [HMMW]
Inhibition (%) [1]: 63.071 ± 2.982 % | OD [1]: 0.350 ± 0.028 | Inhibition (%) [2]: 36.042 ± 2.134 % | OD [2]: 0.855 ± 0.029 | Inhibition (%) [3]: 47.692 ± 4.919 % | OD [3]: 0.740 ± 0.070 | Number of cell metastases ([4]; A375, 50 μmol/L): 371 ± 13.00 | Inhibition (%) ([4]; A375 metastasis, 50 μmol/L): 37.13*** % | Inhibition (%) [5]: 46.311 ± 4.884 % | OD [5]: 0.466 ± 0.042 | Inhibition (%) [6]: 49.128 ± 3.053 % | OD [6]: 0.525 ± 0.032 | Inhibition (%) [7]: 54.560 ± 3.675 % | OD [7]: 0.576 ± 0.047 | Inhibition (%) [8]: 53.399 ± 3.971 % | OD [8]: 0.471 ± 0.040 | Inhibition (%) [9]: 51.933 ± 2.838 % | OD [9]: 0.618 ± 0.036 | Inhibition (%) [10]: 49.268 ± 2.531 % | OD [10]: 0.474 ± 0.024 | Inhibition (%) [11]: 47.820 ± 1.486 % | OD [11]: 0.638 ± 0.018 | in vivo tumorigenicity of CAL27 cells compared with normal saline control [12]: significantly inhibit | Inhibition (%) [13]: 49.114 ± 2.626 % | OD [13]: 0.479 ± 0.025 | Inhibition (%) [14]: 47.561 ± 4.259 % | OD [14]: 0.462 ± 0.038 | Inhibition (%) [15]: 62.176 ± 2.001 % | OD [15]: 0.365 ± 0.019
